{"source": "patent US8609043B2", "about": "“Use of a container of an inorganic additive containing plastic material” (M & P Patent Aktiengesellschaft, priority 2001, dated 2013)", "experiment": "Stability of formulations containing testosterone in containers of different material (HPLC)", "assay_type": "physicochemical", "experimental": "As an example for the aforementioned considerations in table 1 are shown the results of tests investigating the stability of formulations containing the steroid hormone testosterone in containers of different material.\nThe term “remaining drug after storage” is the amount of testosterone remaining in the formulation after storage for 22 hours. The remaining drug was measured by HPLC technique.", "data": [{"smiles": "C[C@]12CC[C@H]3[C@@H](CCC4=CC(=O)CC[C@@]43C)[C@@H]1CC[C@@H]2O", "note": "[testosterone]", "values": [{"measurement": "Remaining drug after storage (%)", "setting": "Methanolic formulation, primary packaging material Glass, storage for 22 hours", "value": 100, "unit": "%"}, {"measurement": "Remaining drug after storage (%)", "setting": "Oil-based formulation, primary packaging material Glass, storage for 22 hours", "value": "≈80%"}, {"measurement": "Remaining drug after storage (%)", "setting": "Oil-based formulation, primary packaging material LDPE + TiO2, storage for 22 hours", "value": 100, "unit": "%"}, {"measurement": "Remaining drug after storage (%)", "setting": "Oil-based formulation, primary packaging material LDPE, storage for 22 hours", "value": "≈30%"}, {"measurement": "Remaining drug after storage (%)", "setting": "Oil-based formulation, primary packaging material PP, storage for 22 hours", "value": "≈50%"}]}]}
